Experiments:
[1] = Liquid, Vibrating tube method
[2] = refractive index (Na D-line) (dimensionless); conditions: 298.15 K; 101.33 kPa; Liquid; Standard Abbe refractometry

CC(=O)N(C)C [N,N-dimethylethanamide]
[1]
Conditions | mass density [kg/m3]
293.15 K, 300 kPa | 941
293.15 K, 2600 kPa | 943
293.15 K, 5100 kPa | 944
293.15 K, 10100 kPa | 947
293.15 K, 14900 kPa | 950
293.15 K, 20200 kPa | 953
293.15 K, 25200 kPa | 955
293.15 K, 30400 kPa | 958
298.15 K, 101.33 kPa | 936.729
303.2 K, 300 kPa | 932
303.2 K, 2500 kPa | 933
303.2 K, 5100 kPa | 935
303.2 K, 10200 kPa | 938
303.2 K, 15200 kPa | 941
303.2 K, 20200 kPa | 944
303.2 K, 24900 kPa | 947
303.2 K, 30200 kPa | 950
313.15 K, 100 kPa | 922
313.15 K, 2500 kPa | 924
313.15 K, 5200 kPa | 926
313.15 K, 10000 kPa | 929
313.15 K, 15200 kPa | 932
313.15 K, 20100 kPa | 935
313.15 K, 25200 kPa | 938
313.15 K, 30200 kPa | 941
323.15 K, 100 kPa | 912
323.15 K, 2500 kPa | 915
323.15 K, 5000 kPa | 917
323.15 K, 10100 kPa | 920
323.15 K, 15100 kPa | 923
323.15 K, 20100 kPa | 927
323.15 K, 25100 kPa | 930
323.15 K, 30500 kPa | 933
333.15 K, 100 kPa | 903
333.15 K, 2500 kPa | 906
333.15 K, 5100 kPa | 907
333.15 K, 10100 kPa | 911
333.15 K, 15100 kPa | 915
333.15 K, 20200 kPa | 918
333.15 K, 25000 kPa | 921
333.15 K, 30100 kPa | 924
343.15 K, 100 kPa | 894
343.15 K, 2600 kPa | 896
343.15 K, 5100 kPa | 898
343.15 K, 10000 kPa | 902
343.15 K, 15000 kPa | 906
343.15 K, 20200 kPa | 909
343.15 K, 25100 kPa | 913
343.15 K, 30300 kPa | 916
353.15 K, 100 kPa | 885
353.15 K, 2500 kPa | 887
353.15 K, 5200 kPa | 889
353.15 K, 10000 kPa | 893
353.15 K, 14900 kPa | 897
353.15 K, 20200 kPa | 901
353.15 K, 25200 kPa | 905
353.15 K, 30100 kPa | 908
363.15 K, 200 kPa | 876
363.15 K, 2500 kPa | 878
363.15 K, 5000 kPa | 880
363.15 K, 10100 kPa | 884
363.15 K, 15200 kPa | 888
363.15 K, 20300 kPa | 892
363.15 K, 25200 kPa | 896
363.15 K, 30000 kPa | 899
373.15 K, 100 kPa | 866
373.15 K, 2600 kPa | 868
373.15 K, 5100 kPa | 871
373.15 K, 10000 kPa | 875
373.15 K, 15100 kPa | 880
373.15 K, 20300 kPa | 884
373.15 K, 25100 kPa | 888
373.15 K, 30600 kPa | 892
383.15 K, 100 kPa | 856
383.15 K, 2500 kPa | 859
383.15 K, 5000 kPa | 861
383.15 K, 10000 kPa | 866
383.15 K, 15000 kPa | 870
383.15 K, 20300 kPa | 875
383.15 K, 25300 kPa | 879
383.15 K, 30200 kPa | 883
393.15 K, 15000 kPa | 870
403.15 K, 100 kPa | 837
403.15 K, 2500 kPa | 840
403.15 K, 5100 kPa | 843
403.15 K, 10200 kPa | 848
403.15 K, 15000 kPa | 853
403.15 K, 20700 kPa | 858
403.15 K, 25200 kPa | 862
403.15 K, 30900 kPa | 867
413.15 K, 100 kPa | 826
413.15 K, 2600 kPa | 830
413.15 K, 5000 kPa | 833
413.15 K, 10100 kPa | 838
413.15 K, 15100 kPa | 844
413.15 K, 20100 kPa | 849
413.15 K, 25200 kPa | 854
413.15 K, 30200 kPa | 858

Conditions | refractive index
[2] | 1.43615

CNC=O [N-methylformamide]
[1]
Conditions | mass density [kg/m3]
293.15 K, 200 kPa | 1004
293.15 K, 500 kPa | 1004
293.15 K, 1000 kPa | 1004
293.15 K, 2500 kPa | 1005
293.15 K, 5000 kPa | 1006
293.15 K, 7600 kPa | 1008
293.15 K, 10100 kPa | 1009
293.15 K, 15000 kPa | 1012
293.15 K, 20100 kPa | 1015
293.15 K, 25100 kPa | 1017
293.15 K, 30100 kPa | 1020
293.15 K, 35000 kPa | 1023
298.15 K, 101.33 kPa | 999.361
303.15 K, 200 kPa | 995
303.15 K, 500 kPa | 995
303.15 K, 1100 kPa | 995
303.15 K, 2500 kPa | 996
303.15 K, 5100 kPa | 998
303.15 K, 7600 kPa | 999
303.15 K, 10000 kPa | 1000
303.15 K, 15100 kPa | 1004
303.15 K, 20100 kPa | 1006
303.15 K, 25100 kPa | 1009
303.15 K, 30000 kPa | 1012
303.15 K, 35000 kPa | 1014
313.15 K, 200 kPa | 986
313.15 K, 500 kPa | 986
313.15 K, 1100 kPa | 987
313.15 K, 2600 kPa | 987
313.15 K, 5100 kPa | 989
313.15 K, 7500 kPa | 990
313.15 K, 10100 kPa | 992
313.15 K, 15000 kPa | 995
313.15 K, 20000 kPa | 998
313.15 K, 25100 kPa | 1001
313.15 K, 30000 kPa | 1004
313.15 K, 35000 kPa | 1006
323.15 K, 100 kPa | 977
323.15 K, 500 kPa | 977
323.15 K, 1000 kPa | 978
323.15 K, 2500 kPa | 979
323.15 K, 5000 kPa | 980
323.15 K, 7500 kPa | 982
323.15 K, 10000 kPa | 984
323.15 K, 15100 kPa | 987
323.15 K, 20100 kPa | 990
323.15 K, 25000 kPa | 993
323.15 K, 30100 kPa | 996
323.15 K, 35100 kPa | 999
333.15 K, 100 kPa | 969
333.15 K, 500 kPa | 969
333.15 K, 1000 kPa | 969
333.15 K, 2500 kPa | 970
333.15 K, 5000 kPa | 972
333.15 K, 7500 kPa | 974
333.15 K, 10000 kPa | 975
333.15 K, 15000 kPa | 979
333.15 K, 20100 kPa | 982
333.15 K, 25000 kPa | 985
333.15 K, 30000 kPa | 988
333.15 K, 35000 kPa | 990
343.15 K, 100 kPa | 960
343.15 K, 500 kPa | 960
343.15 K, 1000 kPa | 960
343.15 K, 2500 kPa | 962
343.15 K, 5100 kPa | 963
343.15 K, 7500 kPa | 965
343.15 K, 10100 kPa | 967
343.15 K, 15100 kPa | 970
343.15 K, 20000 kPa | 973
343.15 K, 25100 kPa | 977
343.15 K, 30100 kPa | 980
343.15 K, 35100 kPa | 983
353.15 K, 100 kPa | 950
353.15 K, 500 kPa | 950
353.15 K, 1000 kPa | 952
353.15 K, 2500 kPa | 953
353.15 K, 5100 kPa | 955
353.15 K, 7600 kPa | 957
353.15 K, 10000 kPa | 958
353.15 K, 15100 kPa | 962
353.15 K, 20100 kPa | 965
353.15 K, 25000 kPa | 969
353.15 K, 30100 kPa | 972
353.15 K, 35100 kPa | 975
363.15 K, 100 kPa | 942
363.15 K, 500 kPa | 943
363.15 K, 1000 kPa | 943
363.15 K, 2500 kPa | 944
363.15 K, 5100 kPa | 946
363.15 K, 7600 kPa | 948
363.15 K, 10100 kPa | 950
363.15 K, 15100 kPa | 954
363.15 K, 20100 kPa | 957
363.15 K, 25000 kPa | 960
363.15 K, 30100 kPa | 964
363.15 K, 35000 kPa | 967
373.15 K, 100 kPa | 934
373.15 K, 500 kPa | 934
373.15 K, 1000 kPa | 934
373.15 K, 2500 kPa | 936
373.15 K, 5100 kPa | 938
373.15 K, 7600 kPa | 940
373.15 K, 10000 kPa | 941
373.15 K, 15100 kPa | 945
373.15 K, 20100 kPa | 949
373.15 K, 25000 kPa | 952
373.15 K, 30100 kPa | 956
373.15 K, 35000 kPa | 959
398.15 K, 100 kPa | 911
398.15 K, 500 kPa | 912
398.15 K, 1100 kPa | 912
398.15 K, 2500 kPa | 913
398.15 K, 5000 kPa | 916
398.15 K, 7600 kPa | 918
398.15 K, 10000 kPa | 920
398.15 K, 15000 kPa | 924
398.15 K, 20100 kPa | 928
398.15 K, 25000 kPa | 932
398.15 K, 30000 kPa | 936
398.15 K, 35100 kPa | 940
423.15 K, 100 kPa | 888
423.15 K, 500 kPa | 889
423.15 K, 1000 kPa | 889
423.15 K, 2600 kPa | 890
423.15 K, 5100 kPa | 893
423.15 K, 7500 kPa | 896
423.15 K, 10000 kPa | 898
423.15 K, 15200 kPa | 903
423.15 K, 20100 kPa | 907
423.15 K, 25100 kPa | 911
423.15 K, 30100 kPa | 916
423.15 K, 35100 kPa | 920

Conditions | refractive index
[2] | 1.43063

From the NIST ThermoML archive (doi:10.1016/j.fluid.2016.08.014)
